# How the values were obtained:
# α5-GABAA receptor = biological target: T1, α5-GABAA receptor (Homo sapiens, UniProt P18507+P31644); assay: Cell-level screening: whole cell patch clamp, inverse agonist efficacy on α5-GABAA receptor expressed in HEK293; type: cell-based; settings: drug 100 nM, GABA 0.05 μM, HEK293 expressing α5, β3 and γ2 subunits, clamped at −60 mV; read-out: Compound inverse agonist efficacy %
# T1 construct: expressed in transfected cells; host or cells: HEK293, monoclonal stably transfected line
# Procedure, shortened: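 Whole-cell patch clamp at −60 mV on HEK293 stably expressing α5β3γ2, pH 7.4 extracellular/CsCl internal solutions. Current evoked by 0.05 μM GABA, then compound in GABA solution; screening at 100 nM, dose-response 0.3–300 nM. Inverse agonist efficacy as % change of GABA current.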
# [1] = Thermodynamic solubility in simulated intestinal fluid (TS in FaSSIF); type: physicochemical; settings: thermodynamic from solid, 37° C.
# Protocol: Simulated intestinal fluid FaSSIF: 54.76 mg of FaSSIF-V2 (Biorelevant, batch. V2FAS-0619-A, lot. V2FAS01) was weighed and added to 15 mL of a buffer solution. After dissolving, the solution was supplemented to 30 mL, and put at room temperature for 1 hour before use.
# Waters e2695 HPLC high performance liquid chromatography, Mettler XSE105 analytical balance.
# Firstly, a 10 mM stock solution was prepared with DMSO, and was diluted with a diluent (ACN: PB buffer 50:50) into 1 μM-200 μM as a standard solution.
# Thermodynamic solubility in intestinal fluid (TS in FaSSIF) was simulated. About 0.3 mg of each sample was weighed and added to 1.5 mL of FaSSIF solution, with two parts in parallel, shaken at 1000 rpm at 37° C. for 4 hours, filtered. 1 mL of an initial filtrate was discarded, and 400 μL of the subsequent filtrate was taken. The filtrate was detected by high performance liquid chromatograph (UV).
# T1 sequence (P31644 32-462): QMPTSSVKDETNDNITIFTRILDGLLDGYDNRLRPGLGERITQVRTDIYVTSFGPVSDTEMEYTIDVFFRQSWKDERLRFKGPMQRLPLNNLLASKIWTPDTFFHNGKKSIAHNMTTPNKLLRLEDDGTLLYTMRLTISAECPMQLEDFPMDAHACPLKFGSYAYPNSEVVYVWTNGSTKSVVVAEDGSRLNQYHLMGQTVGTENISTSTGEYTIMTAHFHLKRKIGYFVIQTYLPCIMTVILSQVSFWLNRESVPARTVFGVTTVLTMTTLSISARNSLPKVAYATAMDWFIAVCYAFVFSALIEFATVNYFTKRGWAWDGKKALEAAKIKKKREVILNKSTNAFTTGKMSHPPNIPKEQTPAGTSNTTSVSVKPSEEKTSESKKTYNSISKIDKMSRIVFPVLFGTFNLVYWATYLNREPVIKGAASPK
# T1 sequence (P28472 26-473 partner): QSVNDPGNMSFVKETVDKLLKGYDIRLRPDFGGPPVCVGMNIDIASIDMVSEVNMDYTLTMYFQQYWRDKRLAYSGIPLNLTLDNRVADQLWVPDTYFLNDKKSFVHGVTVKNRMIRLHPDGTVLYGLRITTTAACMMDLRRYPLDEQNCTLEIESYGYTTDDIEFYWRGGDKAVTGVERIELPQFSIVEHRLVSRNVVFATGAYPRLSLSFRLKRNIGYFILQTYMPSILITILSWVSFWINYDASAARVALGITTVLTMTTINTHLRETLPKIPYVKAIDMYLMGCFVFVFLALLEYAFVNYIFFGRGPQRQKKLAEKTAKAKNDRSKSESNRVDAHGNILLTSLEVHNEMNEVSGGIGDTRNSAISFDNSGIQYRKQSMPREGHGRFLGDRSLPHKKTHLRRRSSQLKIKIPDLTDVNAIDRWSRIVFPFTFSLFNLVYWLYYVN
# T1 sequence (P18507 40-467 isoform P18507-1 limits assumed): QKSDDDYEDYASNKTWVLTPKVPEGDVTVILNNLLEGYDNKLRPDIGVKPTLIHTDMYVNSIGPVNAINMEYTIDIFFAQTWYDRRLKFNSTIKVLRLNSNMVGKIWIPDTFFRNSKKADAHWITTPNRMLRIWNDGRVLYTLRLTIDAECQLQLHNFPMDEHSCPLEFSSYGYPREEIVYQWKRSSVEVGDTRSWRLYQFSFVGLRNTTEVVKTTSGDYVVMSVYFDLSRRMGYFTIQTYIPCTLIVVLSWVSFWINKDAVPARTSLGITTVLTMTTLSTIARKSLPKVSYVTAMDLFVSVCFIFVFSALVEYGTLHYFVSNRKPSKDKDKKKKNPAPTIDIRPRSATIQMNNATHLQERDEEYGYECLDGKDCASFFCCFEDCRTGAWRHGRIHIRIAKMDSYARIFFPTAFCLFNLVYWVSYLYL
inhibition at 0.1 µM (α5-GABAA receptor) [%],solubility thermodynamic at 4 h [1] [µg/mL],SMILES
45.2,179,COc1cc2nnc(-c3cc(C)on3)n2nc1OCc1ccc(OCCN2CCN(C)CC2)nn1 [Embodiment 163]
58.8,32.8,COc1cc2nnc(-c3cc(C)on3)n2nc1OCc1ccc(OCC2CCOC2)cn1 (centres unmarked) [Embodiment 173]
40.7,306,COc1cc2nnc(-c3cc(C)on3)n2nc1OCc1ccc(CN2CCC2)cn1 [Embodiment 169]
40.3,30.6,COc1cc2nnc(-c3cc(C)on3)n2nc1OCc1ccc2nn(C3CCOC3)cc2n1 (centres unmarked) [Embodiment 231]
37.5,59.9,CCOCCCOc1ccc(COc2nn3c(-c4cc(C)on4)nnc3cc2OC)nn1 [Embodiment 168]
39,44.9,COc1cc2nnc(-c3cc(C)on3)n2nc1OCc1ccc(OC2CC3(COC3)C2)nn1 [Embodiment 179]
51.3,91.8,COCCn1ncc2nc(COc3nn4c(-c5cc(C)on5)nnc4cc3OC)ccc21 [Embodiment 241]
52.1,167,COc1cc2nnc(-c3cc(C)on3)n2nc1OCc1ccc2nnc(C)n2n1 [Embodiment 216]
65.4,146,COc1cc2nnc(-c3cc(C)on3)n2nc1OCc1cc(OC2COC2)cnn1 [Embodiment 180]
32.9,66.1,COc1cc2nnc(-c3cc(C)on3)n2nc1OCc1ccc(OCC2(C)COC2)cn1 [Embodiment 170]
36.6,237,COc1cc2nnc(-c3cc(C)on3)n2nc1OCc1ccc(OCC2CCOC2)nn1 (centres unmarked) [Embodiment 162]
53.1,38.2,COc1cc2nnc(-c3cc(C)on3)n2nc1OCc1cnnn1C [Embodiment 158]
32.6,200,COc1cc2nnc(-c3cc(C)on3)n2nc1OCc1ccc2c(n1)CCN(CC(=O)N(C)C)C2 [Embodiment 193]
40.6,63.9,COc1cc2nnc(-c3cc(C)on3)n2nc1OCc1ccc2c(n1)CCN(C1COC1)C2=O [Embodiment 141]
42.5,408,CCN1CCC(c2cccc(COc3nn4c(-c5cc(C)on5)nnc4cc3OC)n2)CC1 [Embodiment 167]
37.4,228,COc1cc2nnc(-c3cc(C)on3)n2nc1OCc1ccc2c(n1)CCN(CC1(C)COC1)C2 [Embodiment 200]
40.5,73.8,COCCCOc1cc(C)c(COc2nn3c(-c4cc(C)on4)nnc3cc2OC)nn1 [Embodiment 156]
57.4,32.6,COc1cc2nnc(-c3cc(C)on3)n2nc1OCc1ccc2c(n1)CCN(C(=O)N1CCOCC1)C2 [Embodiment 202]
53.2,266,COc1cc2nnc(-c3cc(C)on3)n2nc1OCc1ccc2c(cnn2C2CN(C)C2)n1 [Embodiment 234]
33.9,309,COc1cc2nnc(-c3cc(C)on3)n2nc1OCc1ccc(OCCN2CCOCC2)nn1 [Embodiment 164]

# The remaining lines, values behind:
SMILES,inhibition at 0.1 µM (α5-GABAA receptor) [%],solubility thermodynamic at 4 h [1] [µg/mL]
CCN1Cc2ccc(COc3nn4c(-c5cc(C)on5)nnc4cc3OC)nc2C1=O [Embodiment 100],35.3,70
CCN1CCc2nc(COc3nn4c(-c5cc(C)on5)nnc4cc3OC)ccc2C1=O [Embodiment 109],47.3,54
COc1cc2nnc(-c3cc(C)on3)n2nc1OCc1ccc2c(n1)CCN(C(C)=O)C2 [Embodiment 115],32.9,137
COc1cc2nnc(-c3cc(C)on3)n2nc1OCc1ccc(=O)n(CCCC#N)n1 [Embodiment 36],25.9,123
COCc1ccc(COc2nn3c(-c4cc(C)on4)nnc3cc2OC)nc1 [Embodiment 32],41.6,262
COc1cc2nnc(-c3cc(C)on3)n2nc1OCc1cccc2nccn12 [Embodiment 135],39.5,35.4
COCCn1cccc(COc2nn3c(-c4cc(C)on4)nnc3cc2OC)c1=O [Embodiment 75],44.3,52.4
"COc1cc2nnc(-c3cc(C)on3)n2nc1OCc1ccc2c(n1)CCN(Cc1ncccn1)C2=O [Embodiment 88, 2-(((7-Methoxy-3-(5-methylisoxazol-3-yl)-[1,2,4]triazolo[4,3-b]pyridazin-6-yl)oxy)methyl)-6-(pyrimidin-2-ylmethyl)-7,8-dihydro-1,6-naphthyridin-5(6H)-one]",32.5,60.3
COCCOc1cnc(COc2nn3c(-c4cc(C)on4)nnc3cc2OC)cn1 [Embodiment 85],57.3,53.9
COCCCOc1ccnc(COc2nn3c(-c4cc(C)on4)nnc3cc2OC)c1 [Embodiment 55],25.1,38
COc1cc2nnc(-c3cc(C)on3)n2nc1OCc1cccc(C2CCNCC2)n1 [Embodiment 126],38.3,203
"COc1cc2nnc(-c3cc(C)on3)n2nc1OCc1ccccn1 [Embodiment 33, 3-(7-Methoxy-6-(pyridinyl-2-methoxy)-[1,2,4]-triazolo[4,3-b]pyridazin-3-yl)-5-methylisoxazole]",40.4,32.3
COc1cc2nnc(-c3cc(C)on3)n2nc1OCc1cccnn1 [Embodiment 39],36.5,180
COc1cc2nnc(-c3cc(C)on3)n2nc1OCc1ccc2c(n1)CCN(CCC#N)C2 [Embodiment 90],64.9,84.9
COc1cc2nnc(-c3cc(C)on3)n2nc1OCc1nccc(OC)c1OC [Embodiment 7],30.1,37.8
COc1cc2nnc(-c3cc(C)on3)n2nc1OCc1ccncn1 [Embodiment 31],34.1,43.8
COc1cc2nnc(-c3cc(C)on3)n2nc1OCc1cccc(C2CCCN(C3COC3)C2)n1 (centres unmarked) [Embodiment 122],31.9,48.4
COCCN1Cc2ccc(COc3nn4c(-c5cc(C)on5)nnc4cc3OC)nc2C1 [Embodiment 99],33.7,222
"COCc1cc(-c2nnc3cc(OC)c(OCc4ccccn4)nn23)no1 [Embodiment 28, 3-(7-Methoxy-6-(pyridin-2-ylmethoxy)-[1,2,4]triazolo[4,3-b]pyridazin-3-yl)-5-(methoxymethyl)isoxazole]",35.4,55.2
COCCOc1ccc(COc2nn3c(-c4cc(C)on4)nnc3cc2OC)nc1 [Embodiment 6],42.2,46.9
CCN1Cc2ccc(COc3nn4c(-c5cc(C)on5)nnc4cc3OC)nc2C1 [Embodiment 68],51.3,146
COc1ccc(COc2nn3c(-c4cc(C)on4)nnc3cc2OC)nn1 [Embodiment 43],44.2,48.7
"COc1cc2nnc(-c3cc(C)on3)n2nc1OCc1ccc2c(n1)CCN(CCS(C)(=O)=O)C2 [Embodiment 113, 3-(7-Methoxy-6-((6-(2-(methylsulfonyl)ethyl)-5,6,7,8-tetrahydro-1,6-naphthalen-2-yl)methoxy)-[1,2,4]triazolo[4,3-b]pyridazin-3-yl)-5-methylisoxazole]",36.7,191

# Source: US12637468B2, “Substituted [1,2,4]triazolo[4,3-b]pyridazines as GABAA receptor modulators” (SHANGHAI SIMR BIOTECHNOLOGY CO., LTD., priority 2019, dated 2026)
